Experimental data published in ChEMBL document CHEMBL1201862, “PubChem BioAssay data set” (2004).
The source made the active and inactive calls.

Assays:
[1] = biological target: T1, Sentrin-specific protease 8 (Homo sapiens, UniProt Q96LD8); type: functional
T1 sequence (Q96LD8 whole entry): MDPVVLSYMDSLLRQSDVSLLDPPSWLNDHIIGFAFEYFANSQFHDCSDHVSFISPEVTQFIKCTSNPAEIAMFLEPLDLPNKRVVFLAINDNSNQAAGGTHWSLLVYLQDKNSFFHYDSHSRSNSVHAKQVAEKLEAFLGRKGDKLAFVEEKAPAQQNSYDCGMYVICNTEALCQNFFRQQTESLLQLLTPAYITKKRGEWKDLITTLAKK

[2] = biological target: T1, Sentrin-specific protease 8; type: functional; remark: listed apart in the source
[3] = blockers of HIV-1 ZM109 envelope-driven cell-cell fusion – HeLa effector, CEM target cells, luciferase, cherry-pick, dose response (AID 652058); type: functional, cell-based;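 further: luciferase signal from HIV-1 Env mediated cell-cell fusion of effector and target cells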
[4] = off-target signal loss in HeLa-CEM21 co-culture – HeLa F-luc CTL cells, cherry-picked, counter-screen for HIV-1 Env fusion inhibitor project, dose response (AID 652040); type: functional, cell-based;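 further: potency for signal decrease marking cytotoxic or nonspecific inhibition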
[5] = blockers of HIV-1 envelope-mediated cell-cell fusion – cherry-pick, dose response (AID 652057); type: functional, cell-based
[6] = viability loss in CEM21 cells – cell-based, CellTiter-Glo luminescence, cherry-picked, cytotoxicity control for viral fusion inhibitor project, dose response (AID 652042); type: functional;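 further: potency for signal decrease meaning cytotoxicity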
[7] = HIV-1 AD8 envelope cell-cell fusion blockers – cherry-pick, dose response (AID 652062); type: functional, cell-based;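 further: luciferase signal from cell-cell fusion driven by HIV-1 clade B AD8 Env; potency is for inhibitors of fusion seen as a drop in luminescence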
[8] = biological target: T2, Apoptotic protease-activating factor 1 (Homo sapiens, UniProt O14727); assay: SAR analysis of small molecule Activators of Apaf-1 in a Fluorescent assay.; type: functional; conditions: read-out: EC50_Mean;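 further: caspase-3 cleavage of fluorogenic Rh110 DEVD substrate downstream of apoptosome activation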
T2 sequence (O14727 whole entry): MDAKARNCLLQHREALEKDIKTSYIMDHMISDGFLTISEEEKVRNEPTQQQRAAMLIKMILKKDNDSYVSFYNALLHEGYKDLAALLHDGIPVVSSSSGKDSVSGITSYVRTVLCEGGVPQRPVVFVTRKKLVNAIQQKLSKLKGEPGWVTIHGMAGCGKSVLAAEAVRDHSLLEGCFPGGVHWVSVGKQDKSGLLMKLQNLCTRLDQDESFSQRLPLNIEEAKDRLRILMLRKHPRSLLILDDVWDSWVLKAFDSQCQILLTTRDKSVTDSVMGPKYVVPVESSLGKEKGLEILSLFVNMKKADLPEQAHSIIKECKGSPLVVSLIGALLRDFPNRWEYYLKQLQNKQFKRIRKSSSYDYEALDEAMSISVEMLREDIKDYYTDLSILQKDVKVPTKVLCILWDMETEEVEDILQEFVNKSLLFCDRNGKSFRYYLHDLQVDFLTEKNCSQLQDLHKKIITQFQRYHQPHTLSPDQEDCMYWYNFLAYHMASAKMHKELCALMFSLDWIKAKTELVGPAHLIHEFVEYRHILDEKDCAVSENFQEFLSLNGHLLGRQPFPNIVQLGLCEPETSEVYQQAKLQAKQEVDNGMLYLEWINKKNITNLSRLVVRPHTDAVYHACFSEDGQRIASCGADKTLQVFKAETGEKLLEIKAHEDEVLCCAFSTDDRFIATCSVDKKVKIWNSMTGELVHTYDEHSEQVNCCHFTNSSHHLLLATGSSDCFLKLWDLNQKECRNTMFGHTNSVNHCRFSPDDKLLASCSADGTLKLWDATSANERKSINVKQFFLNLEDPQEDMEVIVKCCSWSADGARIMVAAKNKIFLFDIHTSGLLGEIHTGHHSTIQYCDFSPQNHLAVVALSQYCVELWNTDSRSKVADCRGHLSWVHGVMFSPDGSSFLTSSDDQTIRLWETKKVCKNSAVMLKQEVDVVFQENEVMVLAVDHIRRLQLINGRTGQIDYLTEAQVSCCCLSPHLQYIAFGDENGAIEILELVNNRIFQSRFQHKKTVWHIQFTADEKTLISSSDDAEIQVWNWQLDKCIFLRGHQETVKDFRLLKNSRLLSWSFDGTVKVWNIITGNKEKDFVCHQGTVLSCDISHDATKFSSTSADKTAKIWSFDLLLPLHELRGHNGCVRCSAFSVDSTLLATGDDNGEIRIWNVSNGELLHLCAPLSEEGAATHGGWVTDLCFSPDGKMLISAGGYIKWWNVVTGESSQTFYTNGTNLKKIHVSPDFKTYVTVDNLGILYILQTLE

[9] = biological target: SWI/SNF-related matrix-associated actin-dependent regulator of chromatin subfamily A member 2 (Homo sapiens, UniProt P51531); assay: Luminescence-based cell-based high throughput dose response assay to identify activators of the function of SWI/SNF related, matrix associated, actin dependent regulator of chromatin, subfamily a, member 2 (SMARCA2, BRM).; type: functional
[10] = Counterscreen for activators of the function of SWI/SNF related, matrix associated, actin dependent regulator of chromatin, subfamily a, member 2 (SMARCA2, BRM): Luminescence-based cell-based high throughput dose response assay to identify non-selective compounds using the VP16 reporter assay.; type: functional
[11] = biological target: 72 kDa type IV collagenase (Homo sapiens, UniProt P08253); assay: Dose Response validation of uHTS RPN11 inhibitor hits using a MMP-2 Fluorescence assay.; type: functional
[12] = biological target: Prothrombin (Bos taurus, UniProt P00735); assay: thrombin protease inhibitors – biochemical, fluorescence polarization, uHTS hits, dose response (AID 602369); type: functional
[13] = biological target: Dual specificity protein phosphatase 3 (Homo sapiens, UniProt P51452); assay: VHR phosphatase inhibition, dose response, selectivity assay for STEP inhibitor project, biochemical (AID 602374); type: functional; conditions: read-out: IC50_Mean
[14] = biological target: T3, Carboxy-terminal domain RNA polymerase II polypeptide A small phosphatase 1 (Homo sapiens, UniProt Q9GZU7); assay: CTDSP1 inhibitors, concentration-response, biochemical, absorbance readout, ultra-high-throughput screen actives (AID 540297); type: functional
T3 sequence (Q9GZU7 whole entry): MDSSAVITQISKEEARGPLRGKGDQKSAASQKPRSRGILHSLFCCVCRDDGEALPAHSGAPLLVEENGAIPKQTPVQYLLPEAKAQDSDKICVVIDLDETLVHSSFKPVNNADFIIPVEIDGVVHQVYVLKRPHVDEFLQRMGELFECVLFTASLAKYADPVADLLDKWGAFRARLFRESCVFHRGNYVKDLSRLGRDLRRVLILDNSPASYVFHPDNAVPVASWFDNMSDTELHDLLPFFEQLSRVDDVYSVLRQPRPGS

[15] = biological target: Tyrosine-protein phosphatase non-receptor type 5 (Homo sapiens, UniProt P54829); assay: PTPN5 enzyme inhibition – biochemical, fluorescence intensity, uHTS hits, confirmation (AID 602372); type: functional; conditions: read-out: IC50_Mean
[16] = biological target: T4, Tyrosine-protein phosphatase non-receptor type 22 (Homo sapiens, UniProt Q9Y2R2); assay: lymphoid phosphatase LYP inhibitors – biochemical, selectivity assay for STEP inhibitor project, dose response (AID 624241); type: functional
T4 sequence (Q9Y2R2 whole entry): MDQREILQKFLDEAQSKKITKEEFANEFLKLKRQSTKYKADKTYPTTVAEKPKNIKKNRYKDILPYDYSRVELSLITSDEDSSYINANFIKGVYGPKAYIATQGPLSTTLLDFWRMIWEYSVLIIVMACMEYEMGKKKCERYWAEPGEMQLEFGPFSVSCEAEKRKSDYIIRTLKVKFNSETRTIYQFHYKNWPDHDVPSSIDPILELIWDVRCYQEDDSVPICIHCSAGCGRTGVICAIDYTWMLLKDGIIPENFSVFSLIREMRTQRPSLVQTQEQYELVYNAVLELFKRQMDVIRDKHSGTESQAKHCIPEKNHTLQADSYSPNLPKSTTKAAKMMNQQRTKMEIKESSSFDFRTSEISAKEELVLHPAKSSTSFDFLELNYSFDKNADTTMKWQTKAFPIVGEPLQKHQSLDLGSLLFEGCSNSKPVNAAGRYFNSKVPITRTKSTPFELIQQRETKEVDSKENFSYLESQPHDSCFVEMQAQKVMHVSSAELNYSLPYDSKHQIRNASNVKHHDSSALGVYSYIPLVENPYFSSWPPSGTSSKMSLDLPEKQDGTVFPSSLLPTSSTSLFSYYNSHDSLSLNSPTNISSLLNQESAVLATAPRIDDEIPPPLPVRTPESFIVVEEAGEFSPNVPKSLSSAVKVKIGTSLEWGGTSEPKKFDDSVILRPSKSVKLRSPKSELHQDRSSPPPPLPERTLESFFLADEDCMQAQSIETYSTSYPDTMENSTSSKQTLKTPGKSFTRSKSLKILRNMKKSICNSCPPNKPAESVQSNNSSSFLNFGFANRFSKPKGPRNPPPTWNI

[17] = biological target: Tyrosine-protein phosphatase non-receptor type 11 (Homo sapiens, UniProt Q06124); assay: PTPN11 enzyme inhibitors – biochemical, selectivity assay for STEP inhibitor project, dose response (AID 602367); type: functional; conditions: read-out: IC50_Mean
[18] = biological target: 26S proteasome non-ATPase regulatory subunit 14 (Homo sapiens, UniProt O00487); assay: inhibition of proteasome subunit RPN11 – biochemical, fluorescence polarization, uHTS hits, confirmation (AID 602368); type: functional
[19] = biological target: 5-hydroxytryptamine receptor 2A (Mus musculus, UniProt P35363); type: functional, cell-based;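 further: CHO-K1 cells with tagged receptor and beta-arrestin; agonist potency measured as compound-induced activation of the receptor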
[20] = biological target: Mu-type opioid receptor (Homo sapiens, UniProt P35372); type: functional, cell-based;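 further: U2OS cells with beta-arrestin recruitment to OPRM1 by beta-gal complementation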
[21] = tested on: A-375; assay: proliferation inhibition in MITF-low A375 cells – cell-based, cherry-pick samples, set 2, counter-screen for MITF modulator project, dose response (AID 540335); type: functional; conditions: Homo sapiens
[22] = tested on: A-375; assay: MITF: Counter assay: A375 proliferation Measured in Cell-Based System Using Plate Reader - 2084-03_Inhibitor_Dose_DryPowder_Activity. [Related pubchem assays (depositor defined):AID488944]; type: functional; conditions: Homo sapiens
[23] = biological target: T5, Corticotropin-releasing factor receptor 2/Corticotropin-releasing factor-binding protein (Homo sapiens, UniProt P24387+Q13324); assay: Dose Response confirmation of uHTS hits for small molecule antagonists of the CRF-binding protein and CRF-R2 receptor complex.; type: functional; conditions: read-out: IC50_Mean
T5 sequence (Q13324 whole entry): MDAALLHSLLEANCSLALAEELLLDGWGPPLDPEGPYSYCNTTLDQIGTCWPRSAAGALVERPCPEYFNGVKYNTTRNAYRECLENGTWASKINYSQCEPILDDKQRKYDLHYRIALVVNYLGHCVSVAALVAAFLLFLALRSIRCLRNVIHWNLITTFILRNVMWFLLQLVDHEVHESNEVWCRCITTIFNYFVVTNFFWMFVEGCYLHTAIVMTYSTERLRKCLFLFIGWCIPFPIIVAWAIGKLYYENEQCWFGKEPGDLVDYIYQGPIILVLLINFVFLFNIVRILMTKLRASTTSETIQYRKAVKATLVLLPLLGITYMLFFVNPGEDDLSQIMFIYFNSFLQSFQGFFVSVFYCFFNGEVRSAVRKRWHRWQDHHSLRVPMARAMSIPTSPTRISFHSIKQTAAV
T5 sequence (P24387 whole entry): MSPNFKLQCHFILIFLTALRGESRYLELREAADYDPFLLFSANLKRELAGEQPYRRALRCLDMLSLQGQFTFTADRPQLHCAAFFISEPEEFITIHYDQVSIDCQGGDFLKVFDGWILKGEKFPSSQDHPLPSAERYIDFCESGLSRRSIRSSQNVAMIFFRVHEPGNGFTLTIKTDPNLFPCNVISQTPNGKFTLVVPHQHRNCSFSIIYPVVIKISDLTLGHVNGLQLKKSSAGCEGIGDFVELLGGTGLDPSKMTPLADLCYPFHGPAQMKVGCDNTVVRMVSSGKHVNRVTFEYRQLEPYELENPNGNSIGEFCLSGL

[24] = biological target: T5, Corticotropin-releasing factor receptor 2/Corticotropin-releasing factor-binding protein; assay: activators of CRF receptor 2 with binding protein – uHTS hits, confirmation (AID 602473); type: functional; conditions: read-out: EC50_Mean

Chain of Mu-type opioid receptor (P35372 whole entry): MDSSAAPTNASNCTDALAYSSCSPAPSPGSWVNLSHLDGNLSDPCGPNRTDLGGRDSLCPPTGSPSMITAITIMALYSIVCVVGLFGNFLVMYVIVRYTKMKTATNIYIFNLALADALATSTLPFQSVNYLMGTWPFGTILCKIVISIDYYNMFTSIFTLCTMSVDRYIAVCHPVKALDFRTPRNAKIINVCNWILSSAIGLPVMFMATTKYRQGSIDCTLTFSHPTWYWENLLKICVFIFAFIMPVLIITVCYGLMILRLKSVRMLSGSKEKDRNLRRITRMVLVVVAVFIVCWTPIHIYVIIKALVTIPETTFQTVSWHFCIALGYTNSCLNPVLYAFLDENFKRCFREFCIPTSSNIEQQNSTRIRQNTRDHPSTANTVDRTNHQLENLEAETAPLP
Chain of SWI/SNF-related matrix-associated actin-dependent regulator of chromatin subfamily A member 2 (P51531 whole entry): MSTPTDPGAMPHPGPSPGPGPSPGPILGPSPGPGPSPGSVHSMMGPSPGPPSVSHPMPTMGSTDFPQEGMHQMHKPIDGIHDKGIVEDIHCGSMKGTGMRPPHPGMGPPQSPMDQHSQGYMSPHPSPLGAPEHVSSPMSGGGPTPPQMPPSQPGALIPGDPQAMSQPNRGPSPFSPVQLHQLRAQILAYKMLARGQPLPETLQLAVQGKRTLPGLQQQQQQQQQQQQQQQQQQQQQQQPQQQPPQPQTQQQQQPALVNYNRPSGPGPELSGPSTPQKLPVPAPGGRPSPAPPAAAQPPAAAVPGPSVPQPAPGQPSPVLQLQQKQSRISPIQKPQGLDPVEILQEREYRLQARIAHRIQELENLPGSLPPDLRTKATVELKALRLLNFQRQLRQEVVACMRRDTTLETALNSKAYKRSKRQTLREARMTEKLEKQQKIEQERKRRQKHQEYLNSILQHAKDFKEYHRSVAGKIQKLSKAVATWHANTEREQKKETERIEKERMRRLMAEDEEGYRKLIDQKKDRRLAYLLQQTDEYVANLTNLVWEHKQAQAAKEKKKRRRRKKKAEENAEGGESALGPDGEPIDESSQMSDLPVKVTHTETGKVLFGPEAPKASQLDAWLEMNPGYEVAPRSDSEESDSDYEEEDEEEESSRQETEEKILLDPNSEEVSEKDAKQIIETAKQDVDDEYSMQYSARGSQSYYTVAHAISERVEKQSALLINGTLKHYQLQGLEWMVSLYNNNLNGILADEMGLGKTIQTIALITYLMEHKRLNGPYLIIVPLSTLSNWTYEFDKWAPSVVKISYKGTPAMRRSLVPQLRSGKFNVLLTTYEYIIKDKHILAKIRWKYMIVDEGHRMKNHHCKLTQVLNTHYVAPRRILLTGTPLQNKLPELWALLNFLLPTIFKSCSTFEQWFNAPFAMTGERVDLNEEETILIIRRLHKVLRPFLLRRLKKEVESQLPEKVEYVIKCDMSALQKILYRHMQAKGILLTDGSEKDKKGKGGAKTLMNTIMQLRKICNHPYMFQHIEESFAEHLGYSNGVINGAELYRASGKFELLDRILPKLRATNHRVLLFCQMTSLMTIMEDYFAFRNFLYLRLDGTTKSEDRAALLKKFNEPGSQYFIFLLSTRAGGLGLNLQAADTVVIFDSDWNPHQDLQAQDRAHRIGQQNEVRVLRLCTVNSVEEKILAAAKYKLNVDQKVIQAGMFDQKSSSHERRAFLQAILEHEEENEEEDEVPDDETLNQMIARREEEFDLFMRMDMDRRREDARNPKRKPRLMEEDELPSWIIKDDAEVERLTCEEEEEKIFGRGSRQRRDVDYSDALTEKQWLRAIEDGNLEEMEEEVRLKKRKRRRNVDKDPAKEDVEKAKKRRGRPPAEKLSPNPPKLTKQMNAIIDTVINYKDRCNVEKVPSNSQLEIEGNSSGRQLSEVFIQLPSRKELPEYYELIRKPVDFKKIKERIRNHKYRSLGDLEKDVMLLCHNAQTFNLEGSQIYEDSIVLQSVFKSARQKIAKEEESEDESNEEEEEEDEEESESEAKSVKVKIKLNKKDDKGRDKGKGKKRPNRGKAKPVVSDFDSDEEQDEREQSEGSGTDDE
Chain of 5-hydroxytryptamine receptor 2A (P35363 whole entry): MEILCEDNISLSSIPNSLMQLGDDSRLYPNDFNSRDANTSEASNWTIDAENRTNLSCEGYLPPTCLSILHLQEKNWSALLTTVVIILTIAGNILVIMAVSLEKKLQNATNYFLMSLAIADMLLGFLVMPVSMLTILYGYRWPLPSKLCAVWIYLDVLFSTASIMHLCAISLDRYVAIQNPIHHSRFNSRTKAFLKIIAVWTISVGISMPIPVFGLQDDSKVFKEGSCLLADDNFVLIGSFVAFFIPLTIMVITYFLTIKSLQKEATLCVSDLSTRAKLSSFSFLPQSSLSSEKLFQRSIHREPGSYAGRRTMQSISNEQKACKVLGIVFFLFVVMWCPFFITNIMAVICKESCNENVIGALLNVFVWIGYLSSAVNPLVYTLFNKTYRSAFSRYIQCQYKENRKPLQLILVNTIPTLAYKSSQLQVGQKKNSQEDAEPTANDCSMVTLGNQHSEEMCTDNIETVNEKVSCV
Chain of Tyrosine-protein phosphatase non-receptor type 11 (Q06124 whole entry): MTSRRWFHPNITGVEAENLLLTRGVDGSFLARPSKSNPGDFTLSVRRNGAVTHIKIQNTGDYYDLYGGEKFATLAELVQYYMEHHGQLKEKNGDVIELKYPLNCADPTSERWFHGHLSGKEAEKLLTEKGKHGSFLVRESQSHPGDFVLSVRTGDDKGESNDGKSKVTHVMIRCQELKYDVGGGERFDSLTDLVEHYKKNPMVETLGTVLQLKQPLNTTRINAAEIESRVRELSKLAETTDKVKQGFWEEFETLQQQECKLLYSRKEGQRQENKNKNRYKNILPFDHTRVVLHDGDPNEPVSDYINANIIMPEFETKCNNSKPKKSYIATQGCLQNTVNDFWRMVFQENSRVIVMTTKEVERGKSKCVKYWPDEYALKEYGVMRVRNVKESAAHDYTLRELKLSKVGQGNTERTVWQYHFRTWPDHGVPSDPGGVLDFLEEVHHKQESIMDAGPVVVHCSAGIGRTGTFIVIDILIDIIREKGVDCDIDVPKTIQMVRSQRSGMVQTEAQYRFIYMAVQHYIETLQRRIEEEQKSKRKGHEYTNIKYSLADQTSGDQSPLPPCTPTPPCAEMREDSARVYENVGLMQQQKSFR
Chain of Dual specificity protein phosphatase 3 (P51452 whole entry, the tested form may be a part): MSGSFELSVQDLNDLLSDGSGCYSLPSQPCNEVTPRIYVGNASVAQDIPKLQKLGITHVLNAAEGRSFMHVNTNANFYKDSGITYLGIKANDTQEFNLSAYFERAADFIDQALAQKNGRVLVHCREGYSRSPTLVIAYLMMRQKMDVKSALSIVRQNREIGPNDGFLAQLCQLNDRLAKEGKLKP
Chain of 26S proteasome non-ATPase regulatory subunit 14 (O00487 whole entry): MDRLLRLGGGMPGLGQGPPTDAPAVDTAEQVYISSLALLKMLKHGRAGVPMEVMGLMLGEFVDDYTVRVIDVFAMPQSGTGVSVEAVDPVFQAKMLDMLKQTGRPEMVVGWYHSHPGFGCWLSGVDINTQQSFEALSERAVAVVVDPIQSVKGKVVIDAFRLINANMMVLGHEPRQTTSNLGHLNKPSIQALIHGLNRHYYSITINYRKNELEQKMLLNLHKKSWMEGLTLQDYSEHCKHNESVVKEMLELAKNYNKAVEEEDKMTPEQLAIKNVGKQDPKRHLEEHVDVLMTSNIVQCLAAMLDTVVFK
Chain of 72 kDa type IV collagenase (P08253 whole entry): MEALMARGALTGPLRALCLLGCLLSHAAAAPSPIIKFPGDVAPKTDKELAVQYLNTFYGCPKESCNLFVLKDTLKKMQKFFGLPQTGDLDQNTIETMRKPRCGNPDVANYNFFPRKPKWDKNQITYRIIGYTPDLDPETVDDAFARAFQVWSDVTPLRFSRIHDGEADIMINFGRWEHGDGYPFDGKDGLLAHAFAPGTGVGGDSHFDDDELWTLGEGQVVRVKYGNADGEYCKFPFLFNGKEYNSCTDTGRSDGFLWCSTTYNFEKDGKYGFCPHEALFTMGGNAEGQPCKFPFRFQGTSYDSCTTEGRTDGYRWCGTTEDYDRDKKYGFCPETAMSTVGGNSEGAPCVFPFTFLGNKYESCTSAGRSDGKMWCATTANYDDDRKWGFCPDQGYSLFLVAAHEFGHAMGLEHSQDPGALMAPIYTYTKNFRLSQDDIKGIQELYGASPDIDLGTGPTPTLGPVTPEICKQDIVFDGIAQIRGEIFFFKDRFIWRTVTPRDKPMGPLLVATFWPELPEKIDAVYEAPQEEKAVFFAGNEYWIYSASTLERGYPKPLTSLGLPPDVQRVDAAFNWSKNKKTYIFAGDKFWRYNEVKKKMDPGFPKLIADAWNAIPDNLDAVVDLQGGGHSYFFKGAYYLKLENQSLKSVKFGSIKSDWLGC
Chain of Tyrosine-protein phosphatase non-receptor type 5 (P54829 whole entry): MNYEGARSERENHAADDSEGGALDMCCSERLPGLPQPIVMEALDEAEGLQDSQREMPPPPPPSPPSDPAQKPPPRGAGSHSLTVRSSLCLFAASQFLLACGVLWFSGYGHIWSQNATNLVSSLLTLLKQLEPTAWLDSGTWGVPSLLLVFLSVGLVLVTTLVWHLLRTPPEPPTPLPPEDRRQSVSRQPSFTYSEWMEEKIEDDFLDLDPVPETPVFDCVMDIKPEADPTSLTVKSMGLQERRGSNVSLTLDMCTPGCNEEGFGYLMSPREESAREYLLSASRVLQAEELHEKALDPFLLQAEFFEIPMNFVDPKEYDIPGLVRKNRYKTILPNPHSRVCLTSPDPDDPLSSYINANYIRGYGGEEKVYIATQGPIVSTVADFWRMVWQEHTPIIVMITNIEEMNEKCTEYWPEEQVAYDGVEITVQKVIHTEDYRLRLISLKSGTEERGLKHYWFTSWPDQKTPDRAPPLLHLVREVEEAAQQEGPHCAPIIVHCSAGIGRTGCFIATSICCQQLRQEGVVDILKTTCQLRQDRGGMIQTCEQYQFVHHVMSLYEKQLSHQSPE

## COc1ccc2c(c1)C(=O)N(c1ccccc1OC)C(=O)C2
[1]
  IC50: > 100 µM (inactive)
[2]
  IC50: 15.4 µM (active)

## CCOc1cccc(-c2nnc3sc(C4CCCCC4)nn23)c1
[3]
  AC50: 21.4 µM (active)
[4]
  AC50: 46 µM (active)
[5]
  AC50: 5.97 µM (active)
[6]
  AC50: 49.9 µM (active)
[7]
  AC50: 7.17 µM (active)

## Cc1nc(C(F)(F)F)ccc1C(=O)Nc1nc2ccsc2c(=O)s1
[8]
  EC50: > 100 µM (inactive)

## CCC(=O)c1ccc(OCc2cn(CC(=O)c3ccc(O)cc3)nn2)cc1
[1]
  IC50: 7.63 µM (active)
[2]
  IC50: 12.5 µM (active)

## Cc1cccc(CSc2ccc(-c3cccs3)nn2)c1
[9]
  EC50: > 91.1 µM (inactive)
[10]
  EC50: > 91.1 µM (inactive)

## O=C(N/N=C/c1cccnc1)c1ccc(NC(=O)c2cccc(Cl)c2)cc1
[11]
  IC50: > 100 µM (inactive)
[12]
  IC50: > 100 µM (inactive)
[13]
  IC50: 2.84 µM (active)
[14]
  IC50: 7.91 µM (active)
[15]
  IC50: 16.5 µM (active)
[16]
  IC50: 30.2 µM (inactive)
[17]
  IC50: 5.05 µM (active)
[18]
  IC50: 22.7 µM (active)

## O=C(CNCc1cccs1)Nc1cc(S(=O)(=O)N2CCCC2)ccc1Cl
[19]
  EC50: 18.4 µM (inactive)
[20]
  EC50: 92.5 µM (inactive)

## O=C(Nc1nc2ccsc2c(=O)s1)C1CCC1
[21]
  AC50: > 35 µM (active)
[8]
  EC50: > 100 µM (inactive)
[22]
  AC50: > 35 µM (active)

## COc1ccc(OCc2ccc(/C=N\NC(=O)c3sccc3C)o2)cc1
[9]
  EC50: > 91.2 µM (inactive)
[10]
  EC50: > 91.2 µM (inactive)

## CC(=O)N1CCC(N2CCCC(C(=O)c3cccc(Cl)c3)C2)CC1 (stereo unspecified)
[23]
  IC50: > 47.1 µM (inactive)
[24]
  EC50: > 53 µM (inactive)
[19]
  EC50: 0.764 µM (active)
[20]
  EC50: 92.5 µM (inactive)
